Where two headings read alike, the source gives them in different places.
Key:
[1] = system: Leptosphaeria nodorum (LEPTNO); test: In vitro fungitoxicity of hydrazones with and without copper towards Leptosphaeria nodorum (Example 26); assay type: cell-based; settings: 72 h at 25° C.
Phytophthora infestans = assay type: in vivo, Phytophthora infestans on tomato; settings: applied 24 h before inoculation, assessed 7 days after inoculation
Phytophthora capsici = test: In vitro fungitoxicity of hydrazones with and without copper towards Phytophthora capsici (Example 28, Table 3); assay type: cell-based; settings: 0.039 μg/mL, 48 h; for % Inhn Plus copper Observed: copper-plus AS medium (CuCl2, 50 μM); for inhibition of growth at 0.039 µg/mL: Phytophthora capsici, copper-minus AS medium, read-out: % Inhn Minus copper Observed
[2] = Parastagonospora nodorum, 72 h, compound 0.05 μg/mL, copper-minus medium, read-out: LEPTNO % Inhn. Minus Copper Observed
[3] = compound 0.05 μg/mL, copper-plus medium (CuCl2.2H2O)
[4] = hydrazone 50 ppm + 50 μM CuCl2.2H2O, tomato
[5] = Parastagonospora nodorum, 72 h, copper-minus medium, test compound Concn. 0.05 μg/mL, read-out: LEPTNO % Inhn. Minus Copper Observed
[6] = copper-plus medium (CuCl2 10 μM), test compound Concn. 0.05 μg/mL
[7] = hydrazone 50 ppm with 50 μM CuCl2.2H2O, tomato late blight

Row | Compound | inhibition of growth at 0.05 µg/mL [1, 2] [%] | LEPTNO % Inhn. Plus Copper Observed [1, 3] [%] | TLB % Control (Phytophthora infestans; [4]) [%] | % Inhn Plus copper Observed (Phytophthora capsici) [%] | inhibition of growth at 0.039 µg/mL (Phytophthora capsici) [%] | inhibition of growth at 0.2 µg/mL ([1]; Parastagonospora nodorum, 72 h, compound 0.2 μg/mL, copper-minus medium, read-out: LEPTNO % Inhn. Minus Copper Observed) [%] | LEPTNO % Inhn. Plus Copper Observed ([1]; compound 0.2 μg/mL, copper-plus medium (CuCl2.2H2O)) [%] | inhibition of growth at 0.05 µg/mL [1, 5] [%] | LEPTNO % Inhn. Plus Copper Observed [1, 6] [%] | TLB % Control (Phytophthora infestans; [7]) [%] | melting point [°C]
1 | O=C(Cc1ccccc1)N/N=C/c1cc(Br)cc(Br)c1O [Example 124] | 0 | 88.2 | 23.0 | 89.7 | 25 | – | – | – | – | – | –
2 | O=C(N/N=C/c1cc(Br)cc(Br)c1O)c1cccc(F)c1 [Example 119] | 2.2 | 95.7 | 91.9 | 95.1 | 37.9 | – | – | – | – | – | –
3 | CCOc1ccc(C(=O)N/N=C/c2ccccc2O)cc1 [Example 21] | 0.1 | 94.1 | 65.5 | 90.0 | 0 | – | – | – | – | – | –
4 | Oc1c(Cl)cc(Cl)cc1/C=N/NC(=S)c1ccccc1 [Example 52] | – | – | – | 91.2 | 40.6 | 12.3 | 96.4 | – | – | – | –
5 | O=C(N/N=C/c1cc(C(F)(F)F)ccc1O)c1cccc(F)c1 [Example 437] | – | – | – | – | – | – | – | 9.2 | 97.0 | 100.0 | 188 to 196
6 | Cc1cccc(C(=O)N/N=C/c2ccc(Cl)cc2O)c1 [Example 387] | – | – | – | – | – | – | – | 13.5 | 96.9 | 87.0 | 201 to 203
7 | Cc1ccc(C(=O)N/N=C/c2cc(Cl)cc(Cl)c2O)c(C)c1 [Example 27] | 16.5 | 97.9 | 43.3 | – | – | – | – | – | – | – | 246 to 247
8 | O=C(N/N=C/c1cc(Br)cc(Br)c1O)c1cc(Cl)cc(Cl)c1 [Example 117] | 28.8 | 98.5 | 89.5 | – | – | – | – | – | – | – | 267 to 269
9 | C/C(=N\NC(=O)c1ccccc1O)c1cc(F)cc(F)c1O [Example 583] | – | – | – | – | – | – | – | 13.2 | 98.0 | 100.0 | 308 to 323
10 | Cc1cc(C)cc(C(=O)N/N=C/c2cc(Cl)ccc2O)c1 [Example 134] | 4.2 | 95.3 | 57.0 | – | – | – | – | – | – | – | 196 to 199
11 | O=C(N/N=C/c1c(O)cccc1Cl)c1ccccc1C(F)(F)F [Example 407] | – | – | – | – | – | – | – | 0 | 92.0 | 70.0 | 222 to 226
12 | C/C(=N\NC(=O)c1ccc(Cl)cc1)c1cc(Cl)ccc1O [Example 510] | – | – | – | – | – | – | – | 6.2 | 95.5 | 56.0 | 248 to 252
13 | O=C(N/N=C/c1cccc(Cl)c1O)c1cccc(F)c1 [Example 425] | – | – | – | – | – | – | – | 17.5 | 97.6 | 95.0 | 178 to 184
14 | O=C(N/N=C/c1c(C(F)(F)F)ccc(Cl)c1O)c1cccc([N+](=O)[O-])c1 [Example 453] | – | – | – | – | – | – | – | 5.6 | 100.0 | 100.0 | 277 to 279
15 | COc1ccc(C(=O)N/N=C(\C)c2cc(Br)cc(Br)c2O)cc1 [Example 546] | – | – | – | – | – | – | – | 7.6 | 97.7 | 100.0 | 247 to 248
16 | COc1ccc(/C(C)=N/NC(=O)c2ccc(C(F)(F)F)cc2)c(O)c1 [Example 472] | – | – | – | – | – | – | – | 0 | 97.7 | 49.0 | 251 to 252
17 | O=C(N/N=C/c1c(O)ccc(Cl)c1Cl)c1ccccc1 [Example 241] | 0.5 | 97.0 | 62.7 | – | – | – | – | – | – | – | 273 to 274
18 | O=C(N/N=C/c1ccc(Cl)cc1O)c1ccc(F)cc1 [Example 390] | – | – | – | – | – | – | – | 4.2 | 97.5 | 95.0 | 226 to 228
19 | O=C(N/N=C/c1cc(C(F)(F)F)cc(Cl)c1O)c1ccc([N+](=O)[O-])cc1 [Example 328] | – | – | – | – | – | – | – | 0 | 95.1 | 99.0 | 253 to 255
20 | C/C(=N\NC(=O)c1ccccc1Br)c1ccc(Cl)cc1O [Example 462] | – | – | – | – | – | – | – | 0 | 95.0 | 86.0 | 187 to 188

Row | Compound | inhibition of growth at 0.05 µg/mL [1, 2] [%] | LEPTNO % Inhn. Plus Copper Observed [1, 3] [%] | TLB % Control (Phytophthora infestans; [4]) [%] | % Inhn Plus copper Observed (Phytophthora capsici) [%] | inhibition of growth at 0.039 µg/mL (Phytophthora capsici) [%] | inhibition of growth at 0.2 µg/mL ([1]; Parastagonospora nodorum, 72 h, compound 0.2 μg/mL, copper-minus medium, read-out: LEPTNO % Inhn. Minus Copper Observed) [%] | LEPTNO % Inhn. Plus Copper Observed ([1]; compound 0.2 μg/mL, copper-plus medium (CuCl2.2H2O)) [%] | inhibition of growth at 0.05 µg/mL [1, 5] [%] | LEPTNO % Inhn. Plus Copper Observed [1, 6] [%] | TLB % Control (Phytophthora infestans; [7]) [%] | melting point [°C]
21 | O=C(N/N=C/c1c(C(F)(F)F)ccc(Cl)c1O)c1cccc(F)c1 [Example 449] | – | – | – | – | – | – | – | 7.2 | 98.5 | 92.0 | 227 to 229
22 | C/C(=N\NC(=O)c1cccc(Cl)c1)c1ccc(Cl)cc1O [Example 256] | 3 | 98.7 | 18.0 | – | – | – | – | – | – | – | 222 to 223
23 | C/C(=N\NC(=O)c1ccc(C)cc1)c1cccc(Cl)c1O [Example 495] | – | – | – | – | – | – | – | 0 | 97.3 | 91.0 | 195 to 200
24 | Cc1cccc(C(=O)N/N=C/c2cc(Cl)cc(Cl)c2O)c1O [Example 73] | 8.6 | 98.0 | 87.3 | – | – | – | – | – | – | – | 202 to 209
25 | C/C(=N\NC(=O)c1ccccc1Cl)c1cc(C)ccc1O [Example 315] | – | – | – | – | – | – | – | 2.7 | 95.8 | 18.0 | 154 to 158
26 | O=C(N/N=C/c1cc(C(F)(F)F)ccc1O)c1ccccc1C(F)(F)F [Example 444] | – | – | – | – | – | – | – | 0 | 100.0 | 91.0 | 174 to 176
27 | C/C(=N\NC(=O)c1ccc(Br)cc1)c1ccc(Cl)cc1O [Example 460] | – | – | – | – | – | – | – | 0 | 97.6 | 39.0 | 258 to 259
28 | O=C(N/N=C/c1cc(Cl)ccc1O)c1cc(Cl)ccc1Cl [Example 189] | 19.2 | 95.9 | 72.7 | – | – | – | – | – | – | – | 185 to 188
29 | Cc1ccc(C(=O)N/N=C/c2cc(Cl)cc(Br)c2O)c(O)c1 [Example 434] | – | – | – | – | – | – | – | 25.6 | 97.4 | 100.0 | 262 to 268
30 | O=C(N/N=C/c1c(O)cc(Cl)cc1Cl)c1ccccc1 [Example 242] | 6.9 | 98.0 | 78.0 | – | – | – | – | – | – | – | 273 to 274
31 | O=C(N/N=C/c1ccc(Cl)cc1O)c1ccccc1C(F)(F)F [Example 396] | – | – | – | – | – | – | – | 0 | 95.5 | 49.0 | 197 to 200
32 | CCOc1cccc(C(=O)N/N=C/c2cc(Cl)cc(Cl)c2O)c1 [Example 86] | 0.3 | 97.6 | 80.7 | – | – | – | – | – | – | – | 207 to 209
33 | C/C(=N\NC(=O)c1ccc(C)cc1)c1ccc(Cl)cc1O [Example 254] | 8.3 | 98.1 | 0.0 | – | – | – | – | – | – | – | 254 to 256
34 | N#Cc1cc(F)c(O)c(/C=N/NC(=O)c2ccccc2)c1 [Example 307] | – | – | – | – | – | – | – | 0 | 91.3 | 25.0 | 262 to 263
35 | O=C(N/N=C/c1cc(Cl)cc(Cl)c1O)c1cc(Cl)cc(Cl)c1 [Example 79] | 12.2 | 97.1 | 84.4 | – | – | – | – | – | – | – | 248 to 249
36 | O=C(N/N=C/c1cc(Br)cc(F)c1O)c1ccccc1 [Example 410] | – | – | – | – | – | – | – | 1.9 | 97.6 | 95.0 | 211 to 212
37 | COc1ccc(/C(C)=N/NC(=O)c2ccc(Cl)cc2)c(O)c1 [Example 286] | 2.3 | 98.4 | 75.0 | – | – | – | – | – | – | – | 227 to 229
38 | COc1ccc(O)c(/C(C)=N/NC(=O)c2ccccc2C)c1 [Example 262] | 3.1 | 94.0 | 4.6 | – | – | – | – | – | – | – | 146 to 155
39 | C/C(=N\NC(=O)c1ccc(C)cc1)c1cc(C(F)(F)F)ccc1O [Example 530] | – | – | – | – | – | – | – | 9.8 | 96.2 | 59.0 | 225 to 229
